Data as given in patent US12448392B2, “Spiropiperidine derivatives” (89BIO LTD, priority 2016, dated 2025).

How the values were obtained:
[1] = tested on: viral replication (Flaviviridae family); conditions: inhibition of FASN by small molecule inhibitors; cited from earlier work
[2] = non-specific irreversible FASN inhibitors; cited from earlier work
[3] = molecular target: T1, recombinant human baculovirus-expressed GST-tagged FASN (Homo sapiens, UniProt P49327); assay: biochemical; conditions: 5 nM FASN, 150 μM NADPH, 10 μM acetyl-CoA, 25 μM malonyl-CoA, 90 minutes incubation; read-out: IC50 data for Compounds of Formula I, Activity
T1 construct: GST
T1 sequence (P49327 whole entry): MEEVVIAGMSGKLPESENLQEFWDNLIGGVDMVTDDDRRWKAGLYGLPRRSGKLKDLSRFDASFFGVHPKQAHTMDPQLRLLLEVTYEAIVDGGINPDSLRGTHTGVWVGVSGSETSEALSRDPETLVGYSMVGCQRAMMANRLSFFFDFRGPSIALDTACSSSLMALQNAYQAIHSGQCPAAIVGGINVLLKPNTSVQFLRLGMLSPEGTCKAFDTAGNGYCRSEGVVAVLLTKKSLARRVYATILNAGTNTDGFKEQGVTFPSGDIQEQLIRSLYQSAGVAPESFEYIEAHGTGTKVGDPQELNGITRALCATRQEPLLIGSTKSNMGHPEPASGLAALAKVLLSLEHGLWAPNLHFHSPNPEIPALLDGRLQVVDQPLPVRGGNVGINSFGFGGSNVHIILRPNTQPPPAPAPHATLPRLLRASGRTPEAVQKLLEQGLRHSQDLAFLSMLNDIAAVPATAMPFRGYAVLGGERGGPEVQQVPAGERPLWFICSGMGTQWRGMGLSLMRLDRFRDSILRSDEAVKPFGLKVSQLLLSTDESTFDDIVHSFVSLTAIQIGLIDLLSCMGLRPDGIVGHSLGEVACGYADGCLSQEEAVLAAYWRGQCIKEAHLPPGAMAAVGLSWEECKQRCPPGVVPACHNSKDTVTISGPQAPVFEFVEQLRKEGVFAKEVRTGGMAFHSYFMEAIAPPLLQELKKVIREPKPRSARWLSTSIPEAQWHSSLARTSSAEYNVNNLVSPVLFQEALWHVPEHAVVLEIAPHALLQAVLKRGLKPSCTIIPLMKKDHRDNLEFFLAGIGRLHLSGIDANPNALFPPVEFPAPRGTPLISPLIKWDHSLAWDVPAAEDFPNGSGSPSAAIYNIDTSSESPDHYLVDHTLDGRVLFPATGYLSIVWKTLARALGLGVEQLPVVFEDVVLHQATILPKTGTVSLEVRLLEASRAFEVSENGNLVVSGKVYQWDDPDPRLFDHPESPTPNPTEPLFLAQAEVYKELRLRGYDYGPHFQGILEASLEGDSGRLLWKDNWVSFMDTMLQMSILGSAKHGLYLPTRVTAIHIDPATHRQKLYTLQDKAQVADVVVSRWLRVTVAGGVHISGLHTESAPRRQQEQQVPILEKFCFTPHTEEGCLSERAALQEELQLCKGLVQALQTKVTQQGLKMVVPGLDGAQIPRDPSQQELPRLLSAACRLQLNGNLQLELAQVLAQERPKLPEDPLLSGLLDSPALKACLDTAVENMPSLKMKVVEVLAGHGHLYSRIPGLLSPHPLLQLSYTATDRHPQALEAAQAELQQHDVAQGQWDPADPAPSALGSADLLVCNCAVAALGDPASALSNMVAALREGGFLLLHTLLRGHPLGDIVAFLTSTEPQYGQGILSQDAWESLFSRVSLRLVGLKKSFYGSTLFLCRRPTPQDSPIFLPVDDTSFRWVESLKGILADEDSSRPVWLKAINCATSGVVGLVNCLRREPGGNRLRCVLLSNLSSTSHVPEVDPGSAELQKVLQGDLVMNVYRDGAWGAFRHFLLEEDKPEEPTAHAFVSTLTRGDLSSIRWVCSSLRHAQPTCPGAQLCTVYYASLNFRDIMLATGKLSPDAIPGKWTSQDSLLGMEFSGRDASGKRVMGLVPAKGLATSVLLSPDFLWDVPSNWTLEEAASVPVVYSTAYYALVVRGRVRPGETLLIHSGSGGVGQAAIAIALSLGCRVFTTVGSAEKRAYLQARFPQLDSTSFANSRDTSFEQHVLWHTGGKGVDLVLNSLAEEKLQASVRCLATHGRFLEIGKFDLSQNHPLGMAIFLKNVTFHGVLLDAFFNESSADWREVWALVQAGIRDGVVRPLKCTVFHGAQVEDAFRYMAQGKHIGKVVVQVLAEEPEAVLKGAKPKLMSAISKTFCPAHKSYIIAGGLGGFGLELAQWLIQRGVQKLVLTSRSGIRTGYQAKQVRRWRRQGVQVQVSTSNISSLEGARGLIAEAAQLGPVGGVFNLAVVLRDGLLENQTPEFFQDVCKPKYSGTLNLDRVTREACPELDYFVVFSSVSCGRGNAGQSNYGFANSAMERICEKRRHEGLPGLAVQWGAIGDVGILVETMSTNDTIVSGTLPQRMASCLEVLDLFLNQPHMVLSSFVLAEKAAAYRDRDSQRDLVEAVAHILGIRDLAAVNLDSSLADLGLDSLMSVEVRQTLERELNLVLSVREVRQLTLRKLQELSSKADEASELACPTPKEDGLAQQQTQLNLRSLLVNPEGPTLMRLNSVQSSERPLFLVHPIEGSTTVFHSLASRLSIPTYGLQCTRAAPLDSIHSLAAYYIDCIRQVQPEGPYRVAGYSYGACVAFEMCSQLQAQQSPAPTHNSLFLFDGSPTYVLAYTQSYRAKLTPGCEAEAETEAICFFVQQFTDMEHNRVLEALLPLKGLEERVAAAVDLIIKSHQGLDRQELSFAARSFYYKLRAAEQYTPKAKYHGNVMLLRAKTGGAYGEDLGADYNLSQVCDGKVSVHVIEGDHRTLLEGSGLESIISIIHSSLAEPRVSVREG

Row | SMILES | inhibition of viral replication [1] | brain levels of orexigenic neuropeptides [2] | food intake [2] | IC50 [3] [µM]
1 | C/C=C/C/C=C/CCC(=O)[C@H]1O[C@H]1C(N)=O [Cerulenin] | strong inhibition of viral replication | decrease brain levels of orexigenic neuropeptides | decrease food intake | 
2 | Cc1c(-c2ccc3c(c2)CCC2(CCN(C(N)=O)CC2)O3)ccc2c(O)ccnc12 [Example 251, 6-(4-Hydroxy-8-methyl-7-quinolyl)spiro[chromane-2,4′-piperidine]-1′-carboxamide] |  |  |  | 1 to 10
3 | C=C1C(=O)OC(CCCCCCCC)C1C(=O)O (stereo not shown) [Example C-75] |  | decrease brain levels of orexigenic neuropeptides | decrease food intake | 
4 | CCCCCCCCCCC[C@@H](C[C@@H]1OC(=O)[C@H]1CCCCCC)OC(=O)[C@H](CC(C)C)NC=O [Orlistat] | strong inhibition of viral replication |  |  | 
